Our source for the MIC values is patent publication US7087629B2, “Heterocyclylaminomethyloxazolidinones as antibacterials” (AstraZeneca AB, priority 1998, dated 2006).

In brackets after ≈: the same amount, converted by molar mass.

Common to all, as to format: cell-based
Test [1] relates to Coagulase Negative Staphylococci MR (methicillin resistant). Briefly: MIC by agar-dilution, Coagulase Negative Staphylococci MR. Particulars: inoculum 10^4 CFU/spot, 37° C., 24 hours. As for the experimental part: (§1) The following results were obtained on a standard in-vitro test system. The activity is described in terms of the minimum inhibitory concentration (MIC) detemined by the agar-dilution technique with an inoculum size of 10^4 CFU/spot. Typically, compounds are active in the range 0.01 to 256 μg/ml.
(§2) Staphylococci were tested on agar, using an inoculum of 10^4 CFU/spot and an incubation temperature of 37° C. for 24 hours—standard test conditions for the expression of methicillin resistance.

For test [2], the system named is Coagulase Negative Staphylococci MS (methicillin sensitive). Briefly: MIC by agar-dilution, Coagulase Negative Staphylococci MS. The settings on record: inoculum 10^4 CFU/spot, 37° C., 24 hours. As for the experimental part:
as §1, §2

Test [3] deals with Staphylococcus aureus MRQR (methicillin resistant quinolone resistant). Briefly: MIC by agar-dilution, Staphylococcus aureus MRQR. Particulars: inoculum 10^4 CFU/spot, 37° C., 24 hours. As for the experimental part:
as §1, §2

Test [4] deals with Streptococcus pyogenes C203. Briefly: MIC by agar-dilution, Streptococcus pyogenes C203. Particulars: agar with 5% defibrinated horse blood, 10^4 CFU/spot, 37° C., 5% carbon dioxide, 48 hours. As for the experimental part:
(§3) The following results were obtained on a standard in-vitro test system. The activity is described in terms of the minimum inhibitory concentration (MIC) detemined by the agar-dilution technique with an inoculum size of 10^4 CFU/spot. Typically, compounds are active in the range 0.01 to 256 μg/ml. Streptococci and enterococci were tested on agar supplemented with 5% defibrinated horse blood, an inoculum of 10^4 CFU/spot and an incubation temperature of 37° C. in an atmosphere of 5% carbon dioxide for 48 hours—blood is required for the growth of some of the test organisms.

The test system of test [5] is Staphylococcus aureus Oxford. Briefly: MIC by agar-dilution, Staphylococcus aureus Oxford. The settings on record: inoculum 10^4 CFU/spot, 37° C., 24 hours. As for the experimental part:
as §1, §2

For a further test, the system named is Bacillus subtilis. Briefly: MIC by agar-dilution, Bacillus subtilis. The settings on record: inoculum 10^4 CFU/spot. As for the experimental part:
as §1

For the next test, the system named is Enterococcus faecalis. Briefly: MIC by agar-dilution, Enterococcus faecalis. The settings on record: agar with 5% defibrinated horse blood, 10^4 CFU/spot, 37° C., 5% carbon dioxide, 48 hours. As for the experimental part: as §3
Test [6] concerns Staphylococcus aureus Novb. Res (Novobiocin resistant). Briefly: MIC by agar-dilution, Staphylococcus aureus Novb. Res. The settings on record: inoculum 10^4 CFU/spot, 37° C., 24 hours. As for the experimental part:
as §1, §2

The MIC is the lowest concentration that inhibits growth of the organism. With `O=C1O[C@@H](CNc2ccon2)CN1c1ccc(N2CCOCC2)c(F)c1` [Example 2, 5(S)-Isoxazol-3-ylaminomethyl-3-(3-fluoro-4-morpholinophenyl)-oxazolidin-2-one], the MIC in test [1] is 1 µg/mL (≈ 2.76 µM); in test [2], 0.5 µg/mL (≈ 1.38 µM); in test [3] it was 1 µg/mL (≈ 2.76 µM); in test [4] it was 1 µg/mL (≈ 2.76 µM); in test [5] it was 0.5 µg/mL (≈ 1.38 µM); against Bacillus subtilis, 0.5 µg/mL (≈ 1.38 µM). Also, the values for the MIC (against Enterococcus faecalis; in test [6]) were 2 µg/mL (≈ 5.52 µM) and 1 µg/mL (≈ 2.76 µM), respectively.
